Measurements published in US5508266A, “Gem-disubstituted amino acid derivatives” (Ciba-Geigy Corporation, priority 1994, dated 1996).

Assays:
[1] = biological target: T1, neutral endopeptidase (NEP, EC 3.4.24.11) (Rattus norvegicus, UniProt P07861); test: GAAP in vitro assay of neutral endopeptidase (rat kidney cortex membranes); format: biochemical; settings: substrate glutaryl-Ala-Ala-Phe-2-naphthylamide 500 μM, pH 7.4 at 25° C.
T1 construct: 4.2 μg of protein (rat kidney cortex membranes prepared by method of Maeda et at, 1983); from tissue; host or cells: rat kidney cortex membranes
T1 sequence (P07861 1-750): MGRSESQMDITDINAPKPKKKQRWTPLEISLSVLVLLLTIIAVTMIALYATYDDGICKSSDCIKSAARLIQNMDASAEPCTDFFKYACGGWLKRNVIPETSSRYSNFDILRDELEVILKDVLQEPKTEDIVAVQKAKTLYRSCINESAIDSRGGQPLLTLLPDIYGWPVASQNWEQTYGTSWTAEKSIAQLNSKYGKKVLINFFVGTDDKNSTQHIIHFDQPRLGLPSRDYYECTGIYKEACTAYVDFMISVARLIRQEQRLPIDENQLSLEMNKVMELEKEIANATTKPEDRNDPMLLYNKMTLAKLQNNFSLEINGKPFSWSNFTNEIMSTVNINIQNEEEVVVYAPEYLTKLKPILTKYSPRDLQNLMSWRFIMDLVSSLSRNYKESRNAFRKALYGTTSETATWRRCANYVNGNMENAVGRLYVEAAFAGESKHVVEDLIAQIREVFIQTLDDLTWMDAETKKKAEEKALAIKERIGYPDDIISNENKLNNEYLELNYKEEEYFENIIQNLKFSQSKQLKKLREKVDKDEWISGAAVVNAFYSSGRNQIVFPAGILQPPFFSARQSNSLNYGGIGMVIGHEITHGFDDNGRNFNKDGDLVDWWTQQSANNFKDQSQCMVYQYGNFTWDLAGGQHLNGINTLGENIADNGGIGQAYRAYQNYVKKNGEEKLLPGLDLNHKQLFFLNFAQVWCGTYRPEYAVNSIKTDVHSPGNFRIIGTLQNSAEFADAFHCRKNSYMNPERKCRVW
Protocol: In vitro testing is most appropriate for the free carboxylic acids of the invention. The test compound is dissolved in dimethyl sulfoxide, ethanol, or 0.25M sodium bicarbonate solution, and the solution is diluted with buffer to the desired concentration.
The in vitro inhibition of neutral endopeptidase (NEP, EC 3.4.24.11) can be determined as follows:
Neutral endopeptidase 3.4.24.11 activity is determined by the hydrolysis of the substrate glutaryl-Ala-Ala-Phe-2-naphthylamide (GAAP) using a modified procedure of Orlowski and Wilk (1981). The incubation mixture (total volume 125 μl) contains 4.2 μg of protein (rat kidney cortex membranes prepared by method of Maeda et at, 1983), 50 mM tris buffer, pH 7.4 at 25° C., 500 μM substrate (final concentration), and leucine aminopeptidase M (2.5 μg). The mixture is incubated for 10 minutes at 25° C. and 100 μl of fast garnet (250 μg fast garnet/ml of 10% Tween 20 in 1M sodium acetate, pH 4.2) is added. Enzyme activity is measured spectrophotometrically at 540 nm. One unit of NEP 24.11 activity is defined as 1 nmol of 2-naphthylamine released per minute at 25° C. at pH 7.4. IC50 values are determined, i.e. the concentration of test compound required for 50% inhibition of the release of 2-naphthylamine.

[2] = biological target: T2, angiotensin converting enzyme (Rattus norvegicus, UniProt P47820); test: Inhibition of angiotensin I induced pressor response in normotensive rats; format: in vivo; settings: 10 mg/Kg i.v., male normotensive anesthetized rats, 300 ng/kg angiotensin I i.v. challenge
T2 construct: from tissue; host or cells: whole animal: male, normotensive rats
T2 sequence (P47820 36-1313): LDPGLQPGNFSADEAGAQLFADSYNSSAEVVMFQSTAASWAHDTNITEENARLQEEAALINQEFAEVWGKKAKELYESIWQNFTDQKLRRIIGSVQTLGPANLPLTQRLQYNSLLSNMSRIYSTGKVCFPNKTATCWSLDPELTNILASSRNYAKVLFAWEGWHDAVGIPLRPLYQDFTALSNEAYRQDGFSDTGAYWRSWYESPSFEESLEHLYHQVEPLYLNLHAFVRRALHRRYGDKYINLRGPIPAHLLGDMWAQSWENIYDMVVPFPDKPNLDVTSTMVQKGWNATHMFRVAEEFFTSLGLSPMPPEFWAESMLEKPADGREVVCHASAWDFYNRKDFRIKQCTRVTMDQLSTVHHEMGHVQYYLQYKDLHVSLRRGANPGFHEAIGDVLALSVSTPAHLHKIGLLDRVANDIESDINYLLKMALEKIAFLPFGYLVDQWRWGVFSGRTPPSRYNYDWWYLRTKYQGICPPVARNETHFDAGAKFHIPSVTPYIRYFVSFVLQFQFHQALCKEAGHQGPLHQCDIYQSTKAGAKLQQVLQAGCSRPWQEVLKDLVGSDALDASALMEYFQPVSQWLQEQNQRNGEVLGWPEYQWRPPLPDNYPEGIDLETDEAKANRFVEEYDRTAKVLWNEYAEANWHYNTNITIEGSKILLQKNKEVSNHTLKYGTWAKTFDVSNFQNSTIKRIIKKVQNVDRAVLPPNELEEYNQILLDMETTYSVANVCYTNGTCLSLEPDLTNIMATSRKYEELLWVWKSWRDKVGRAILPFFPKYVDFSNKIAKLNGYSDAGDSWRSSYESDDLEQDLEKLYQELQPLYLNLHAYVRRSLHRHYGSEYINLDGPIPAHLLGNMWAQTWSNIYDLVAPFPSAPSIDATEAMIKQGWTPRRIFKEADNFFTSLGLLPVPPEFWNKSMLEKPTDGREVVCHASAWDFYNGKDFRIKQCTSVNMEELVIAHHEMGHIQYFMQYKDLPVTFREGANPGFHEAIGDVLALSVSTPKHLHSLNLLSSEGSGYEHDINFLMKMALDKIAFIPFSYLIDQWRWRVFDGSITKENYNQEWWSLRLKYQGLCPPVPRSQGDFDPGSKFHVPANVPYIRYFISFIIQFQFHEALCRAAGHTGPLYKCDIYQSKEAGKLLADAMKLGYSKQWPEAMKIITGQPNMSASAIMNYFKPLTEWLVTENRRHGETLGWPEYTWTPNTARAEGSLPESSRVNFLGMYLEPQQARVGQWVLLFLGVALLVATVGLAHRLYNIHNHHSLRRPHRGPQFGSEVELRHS
Protocol: The in vivo test for intravenously administered compounds is performed with male, normotensive rats, which are anesthetized with sodium metofan. A femoral artery and femoral vein are cannulated respectively for direct blood pressure measurement on i.v. administration of angiotensin I and i.v. or p.o. administration of a compound of this invention. After the basal blood pressure is stabilized, pressor responses to 3 challenges of 300 ng/kg angiotensin I i.v., at 15 minute intervals, are obtained. Such pressure responses are usually again obtained at 15, 30, 60 and 90 minutes, and then every hour up to 6 hours after i.v. or p.o. administration of the compound to be tested, and compared with the initial responses. Any observed decrease of said pressor response is an indication of Angiotensin I converting enzyme inhibition.

- IC50 [1]: ~9.2 nM
- duration of inhibition of the Angiotensin I induced pressor response [2]: 6 h
SMILES: CC(C)[C@H](S)C(=O)NC(C)(C)C(=O)N[C@@H](Cc1ccc(O)cc1)C(=O)O [Example 2, N-[2-(2(S)-mercapto-3-methyl-1-oxobutylamino)-2-methyl-1-oxopropyl]-L-tyrosine]
